According to patent US6610883B1, “Compounds having selective activity for retinoid X receptors, and means for modulation of processes mediated by retinoid X receptors” (Ligand Pharmaceuticals, Inc., priority 1992, dated 2003):

Columns and labels:
RARα [1] = target: T1, RARα (Homo sapiens, UniProt P10276); assay: Radioligand displacement binding, RARα; parameters: made in house; details: displacement of radiolabeled retinoic acid, read-out: Binding (Kd50 nM)
T1 sequence (P10276 1-462): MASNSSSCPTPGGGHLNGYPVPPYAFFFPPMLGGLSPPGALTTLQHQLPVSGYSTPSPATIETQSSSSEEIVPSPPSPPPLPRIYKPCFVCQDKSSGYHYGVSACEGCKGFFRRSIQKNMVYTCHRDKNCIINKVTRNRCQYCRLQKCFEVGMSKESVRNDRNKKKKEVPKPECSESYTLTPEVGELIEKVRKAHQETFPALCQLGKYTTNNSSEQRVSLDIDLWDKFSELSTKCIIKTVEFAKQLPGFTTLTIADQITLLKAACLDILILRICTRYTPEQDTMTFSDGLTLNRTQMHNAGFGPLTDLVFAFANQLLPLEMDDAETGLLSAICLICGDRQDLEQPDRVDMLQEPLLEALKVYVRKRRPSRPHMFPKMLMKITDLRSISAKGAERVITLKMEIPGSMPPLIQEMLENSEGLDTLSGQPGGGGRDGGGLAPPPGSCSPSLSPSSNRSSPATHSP
Method: (§7) The binding parameters of receptors expressed in baculovirus systems and mammalian systems are essentially identical.
(§8) By testing the abilities of various synthetic retinoids to compete with the radiolabeled retinoic acid for binding to various receptor isoforms, the ability of the compounds to directly interact with the receptor can be examined, and the relative dissociation constant for the receptor itself can be determined.
(§9) The Kd values were determined by application of the Cleng-Prusoff equation. These values were based on a determination of the IC50 value as determined graphically from a log-logit plot of the data.

RARβ [2] = target: T2, RARβ (Homo sapiens, UniProt P10826); assay: Radioligand displacement binding, RARβ
T2 sequence (P10826 1-455): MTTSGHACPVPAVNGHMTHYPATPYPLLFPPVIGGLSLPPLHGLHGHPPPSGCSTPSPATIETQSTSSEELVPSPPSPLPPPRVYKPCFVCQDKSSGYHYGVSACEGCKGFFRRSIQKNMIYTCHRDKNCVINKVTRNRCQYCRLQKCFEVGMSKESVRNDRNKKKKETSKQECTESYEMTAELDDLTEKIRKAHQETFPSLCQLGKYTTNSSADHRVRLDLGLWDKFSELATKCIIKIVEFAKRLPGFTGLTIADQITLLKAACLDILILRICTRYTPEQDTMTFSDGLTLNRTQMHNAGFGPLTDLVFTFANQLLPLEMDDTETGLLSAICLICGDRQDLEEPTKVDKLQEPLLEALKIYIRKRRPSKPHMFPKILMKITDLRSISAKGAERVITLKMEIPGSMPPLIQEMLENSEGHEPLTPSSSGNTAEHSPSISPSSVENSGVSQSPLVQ
Method: as §7, §8, §9

RARγ [3] = target: T3, RARγ (Homo sapiens, UniProt P13631); assay: Radioligand displacement binding, RARγ
T3 sequence (P13631 1-454): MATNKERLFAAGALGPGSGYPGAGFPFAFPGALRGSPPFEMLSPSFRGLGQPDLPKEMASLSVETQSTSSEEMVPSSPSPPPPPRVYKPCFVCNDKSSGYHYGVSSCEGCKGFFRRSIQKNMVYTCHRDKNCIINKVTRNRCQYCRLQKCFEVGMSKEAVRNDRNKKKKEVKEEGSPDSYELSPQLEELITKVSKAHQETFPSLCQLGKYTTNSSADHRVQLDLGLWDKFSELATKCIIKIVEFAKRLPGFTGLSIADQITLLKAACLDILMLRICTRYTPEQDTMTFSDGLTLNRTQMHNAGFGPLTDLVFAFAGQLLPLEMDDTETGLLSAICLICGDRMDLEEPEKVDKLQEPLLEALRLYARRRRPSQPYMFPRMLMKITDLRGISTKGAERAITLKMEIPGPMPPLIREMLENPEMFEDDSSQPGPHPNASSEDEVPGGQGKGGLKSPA
Method: as §7, §8, §9

RARα [4] = target: T1, RARα; assay: Co-transfection (cis-trans) assay in CV-1 cells, RARα; assay type: cell-based; parameters: expressed in transfected cells; host or cells: CV-1 (monkey kidney)
Excerpt: (§1) The co-transfection assay provides a mechanism to evaluate the ability of a compound to modulate the transcription response initiated by an intracellular receptor. […] Berger, et al., J. Steroid Biochem Molec.
(§2) Briefly, the co-transfection assay involves the introduction of two plasmids by transient transfection into a retinoid receptor-negative mammalian cell background. The first plasmid contains a retinoid receptor cDNA and directs constitutive expression of the encoded receptor. The second plasmid contains a cDNA that encodes for a readily quantifiable protein, e.g., firefly luciferase or chloramphenicol acetyl transferase (CAT), under control of a promoter containing a retinoid acid response element, which confers retinoid dependence on the transcription of the reporter. In this co-transfection assay, all retinoid receptors respond to all-trans-retinoic acid in a similar fashion. This assay can be used to accurately measure efficacy and potency of retinoic acid and synthetic retinoids as ligands that interact with the individual retinoid receptor subtypes.
(§3) Accordingly, synthetic retinoid compounds of the current invention were evaluated for their interaction with retinoid receptor subtypes using the co-transfection assay in which CV-1 cells were co-transfected with one of the retinoid receptor subtypes, a reporter construct, and an internal control to allow normalization of the response for transfection efficiency. The following example is illustrative.
(§4) Retinoids: All-tans-retinoic acid (RA) and 13-cis-retinoic acid (13-cis-RA) were obtained from Sigma. […] Retinoids were dissolved in dimethylsulfoxide for use in the transcriptional activation assays.
(§5) Co-transfection Assay In CV-1 Cells: A monkey kidney cell line, CV-1, was used in the cis-trans assay. Cells were transfected with two plasmids. […] The cis-vector contains an easily assayable gene product, in this case the firefly luciferase, coupled to a retinoid-responsive promoter, i.e., an RARE or RXRE. Addition of retinoic acid or an appropriate synthetic retinoid results in the formation of a retinoid-RAR or -RXR complex that activates the expression of luciferase gene, causing light to be emitted from cell extracts. The level of luciferase activity is directly proportional to the effectiveness of the retinoid-receptor complex in activating gene expression. This sensitive and reproducible co-transfection approach permits the identification of retinoids that interact with the different receptor isoforms.
(§6) Cells were cultured in DMEM supplemented with 10% charcoal resin-stripped fetal bovine serum, and experiments were conducted in 96-well plates. […] Cells were transfected for 6 h and then washed to remove the precipitate. The cells were then incubated for 36 h with or without retinoid. After the transfection, all subsequent steps were performed on a Beckman Biomek Automated Workstation. […] All determinations were performed in triplicate in two independent experiments and were normalized for transfection efficiency by using β-galactosidase as the internal control. […] Efficacy values less than 5% are not statistically different than the 0% background.

RARβ [5] = target: T2, RARβ; assay: Co-transfection (cis-trans) assay in CV-1 cells, RARβ; assay type: cell-based; parameters: expressed in transfected cells; host or cells: CV-1 (monkey kidney)
Excerpt: as §1, §2, §3, §4, §5, §6

RARγ [6] = target: T3, RARγ; assay: Co-transfection (cis-trans) assay in CV-1 cells, RARγ; assay type: cell-based; parameters: expressed in transfected cells; host or cells: CV-1 (monkey kidney)
Excerpt: as §1, §2, §3, §4, §5, §6

RXRβ/VDR = target: T4, RXRβ/VDR (UniProt P11473+P28704); assay: Co-transfection of RXRβ and VD receptors in CV-1 cells; assay type: cell-based
T4 construct: expressed in transfected cells; host or cells: CV-1
T4 sequence (P28704 whole entry): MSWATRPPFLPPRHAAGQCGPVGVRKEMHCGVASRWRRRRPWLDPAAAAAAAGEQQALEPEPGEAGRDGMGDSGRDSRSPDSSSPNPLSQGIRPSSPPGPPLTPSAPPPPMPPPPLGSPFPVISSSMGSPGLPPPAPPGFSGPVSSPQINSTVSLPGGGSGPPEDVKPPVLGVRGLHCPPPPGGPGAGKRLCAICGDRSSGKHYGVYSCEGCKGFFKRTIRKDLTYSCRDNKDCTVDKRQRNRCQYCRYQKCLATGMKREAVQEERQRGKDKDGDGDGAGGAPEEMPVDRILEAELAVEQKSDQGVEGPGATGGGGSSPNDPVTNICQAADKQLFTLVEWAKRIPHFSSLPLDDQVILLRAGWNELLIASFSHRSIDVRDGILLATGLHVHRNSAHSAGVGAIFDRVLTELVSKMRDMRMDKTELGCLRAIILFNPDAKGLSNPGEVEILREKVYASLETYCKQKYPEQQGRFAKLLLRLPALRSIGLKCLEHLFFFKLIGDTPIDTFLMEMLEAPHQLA
T4 sequence (P11473 whole entry): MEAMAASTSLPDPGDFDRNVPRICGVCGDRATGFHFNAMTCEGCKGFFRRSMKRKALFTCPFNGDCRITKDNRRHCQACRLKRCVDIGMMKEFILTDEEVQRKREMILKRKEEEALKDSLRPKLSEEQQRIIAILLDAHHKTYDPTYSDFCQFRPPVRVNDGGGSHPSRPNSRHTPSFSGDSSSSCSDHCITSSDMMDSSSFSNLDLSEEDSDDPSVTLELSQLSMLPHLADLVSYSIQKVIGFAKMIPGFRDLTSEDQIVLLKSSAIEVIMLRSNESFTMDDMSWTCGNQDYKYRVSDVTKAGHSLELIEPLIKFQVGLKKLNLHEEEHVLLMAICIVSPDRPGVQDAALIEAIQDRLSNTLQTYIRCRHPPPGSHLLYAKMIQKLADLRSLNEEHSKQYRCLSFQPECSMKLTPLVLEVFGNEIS

[7] = CV-1, maximal response relative to all-trans-retinoic acid at 10^−5 M, read-out: Efficacy
[8] = CV-1 cells, luciferase reporter, 36 h, read-out: Potency

## C=C(c1ccc(C(=O)O)cn1)c1cc2c(cc1C)C(C)(C)CCC2(C)C [TPNEP (58), 2-[1-(3,5,5,8,8-pentamethyl-5,6,7,8-tetrahydro-2-naphthyl)ethenyl]pyridine-5-carboxylic acid]
RARα [1]
  Kd: 7.8 µM
RARβ [2]
  Kd: 4.9 µM
RARγ [3]
  Kd: 6 µM
RARα [4]; [7]
  Emax at 10 µM: < 2%
RARα [4]; [8]
  EC50: > 10 µM
RARβ [5]; [7]
  Emax at 10 µM: < 2%
RARβ [5]; [8]
  EC50: > 10 µM
RARγ [6]; [7]
  Emax at 10 µM: 24%
RARγ [6]; [8]
  EC50: 1.5 µM

## 1,25-dihydroxy-vitamin D
RXRβ/VDR
  Normalized Response (%): 100%
